In brackets after ≈: the same amount, converted by molar mass. Blank lines part the entries; values can stand above or below the compound they belong to.
How the values were obtained:
[1] = Antiplatelet activity in platelet (unknown origin) assessed as inhibition of ADP-induced platelet aggregation relative to control; assay type: functional, cell-based; details: for IC50: platelet
Plasma [2] = assay: Antiplatelet activity in rabbit plasma assessed as inhibition of arachidonic acid induced platelet aggregation; assay type: functional, cell-free; details: Oryctolagus cuniculus
Rattus norvegicus [3] = species on record: Rattus norvegicus; assay: Antiplatelet aggregration activity in arteriovenous bypass thrombosis rat model assessed as aggregation inhibition rate relative to control; assay type: functional
Coagulation factor X [4] = molecular target: Coagulation factor X (Mus musculus, UniProt O88947); assay: Inhibition of mouse FXa
Sequence of Coagulation factor X (Mus musculus, UniProt O88947) (O88947 41-180 limits assumed): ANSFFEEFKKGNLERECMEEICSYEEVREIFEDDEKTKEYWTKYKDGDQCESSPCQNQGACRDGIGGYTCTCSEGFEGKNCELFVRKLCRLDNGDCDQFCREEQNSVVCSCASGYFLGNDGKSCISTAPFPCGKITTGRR
Sequence of Coagulation factor X (Mus musculus, UniProt O88947) (O88947 232-481 limits assumed): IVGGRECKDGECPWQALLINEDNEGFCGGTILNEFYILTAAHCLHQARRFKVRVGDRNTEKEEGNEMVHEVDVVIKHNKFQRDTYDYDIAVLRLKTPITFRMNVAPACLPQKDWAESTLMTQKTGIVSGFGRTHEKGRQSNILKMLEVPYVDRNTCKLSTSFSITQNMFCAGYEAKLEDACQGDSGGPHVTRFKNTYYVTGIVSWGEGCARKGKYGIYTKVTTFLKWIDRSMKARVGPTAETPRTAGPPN

Coagulation factor X [5] = molecular target: Coagulation factor X (Homo sapiens, UniProt P00742); assay: Binding affinity to FXa (unknown origin)
Sequence of Coagulation factor X (Homo sapiens, UniProt P00742) (P00742 41-179 limits assumed): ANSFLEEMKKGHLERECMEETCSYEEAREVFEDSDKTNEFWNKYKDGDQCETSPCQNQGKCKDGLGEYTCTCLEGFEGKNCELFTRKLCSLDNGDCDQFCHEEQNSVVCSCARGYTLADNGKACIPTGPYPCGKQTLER
Sequence of Coagulation factor X (Homo sapiens, UniProt P00742) (P00742 235-488 limits assumed): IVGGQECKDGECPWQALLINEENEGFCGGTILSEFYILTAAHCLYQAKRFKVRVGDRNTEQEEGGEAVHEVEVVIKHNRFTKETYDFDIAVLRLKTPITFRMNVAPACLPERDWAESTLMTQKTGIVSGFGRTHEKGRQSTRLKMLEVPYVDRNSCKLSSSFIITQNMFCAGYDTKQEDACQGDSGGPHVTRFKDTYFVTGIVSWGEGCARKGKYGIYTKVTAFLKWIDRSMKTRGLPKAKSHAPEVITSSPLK

Plasma [6] = assay: Anticoagulant activity in rabbit plasma assessed as thrombin time; assay type: functional, Oryctolagus cuniculus
Plasma [7] = assay: Anticoagulant activity in rabbit plasma assessed as activated partial thromboplastin time; assay type: functional, Oryctolagus cuniculus
Plasma [8] = assay: Anticoagulant activity in rabbit plasma assessed as prothrombin time; assay type: functional, Oryctolagus cuniculus
[9] = Antiplatelet activity in human platelet; assay type: functional, cell-based
Platelet [10] = assay: Potency index, ratio of IC50 for MCI-154 to IC50 for test compound against antiplatelet activity in human platelet; assay type: functional
Plasma [11] = assay: Antiplatelet activity in plasma (unknown origin) assessed as reduction of thrombin-induced platelet aggregation by aggregometer; assay type: functional, cell-free; details: Homo sapiens
Plasma [12] = assay: Antiplatelet activity in plasma (unknown origin) assessed as reduction of ADP-induced platelet aggregation by aggregometer; assay type: functional, cell-free; details: Homo sapiens
Plasma [13] = assay: Antithrombotic activity in rat plasma; assay type: functional
Plasma (Mus musculus) = assay: Anticoagulant activity in mouse plasma assessed as prothrombin time
Plasma [14] = assay: Anticoagulant activity in mouse plasma assessed inhibition of thrombin-induced platelet aggregation; assay type: functional, cell-free
[15] = Antiplatelet aggregation activity in rabbit platelet assessed as reduction in ADP-induced platelet aggregation; assay type: functional, cell-based; details: Oryctolagus cuniculus
P2Y purinoceptor 1 = P2Y purinoceptor 1 (Homo sapiens, UniProt P47900); assay: Antagonist activity at P2Y1 receptor (unknown origin); assay type: functional
Sequence of P2Y purinoceptor 1 (P47900 whole entry): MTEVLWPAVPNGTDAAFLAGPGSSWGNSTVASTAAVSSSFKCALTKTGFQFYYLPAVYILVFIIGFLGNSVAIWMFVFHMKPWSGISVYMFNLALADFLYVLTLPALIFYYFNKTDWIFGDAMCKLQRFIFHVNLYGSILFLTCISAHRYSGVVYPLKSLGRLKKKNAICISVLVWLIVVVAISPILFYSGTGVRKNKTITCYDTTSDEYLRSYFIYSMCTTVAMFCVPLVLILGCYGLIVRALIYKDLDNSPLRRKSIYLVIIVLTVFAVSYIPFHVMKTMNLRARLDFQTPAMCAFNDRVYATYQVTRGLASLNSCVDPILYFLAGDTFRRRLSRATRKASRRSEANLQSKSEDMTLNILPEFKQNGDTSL

Blood [16] = assay: Antithrombotic activity in ferric chloride-treated carotid artery thrombosis Sprague-dawley rat blood assessed as clot weight at 10 mg/kg (RVB = 72.50 +/- 2 mg); assay type: functional
Blood [17] = assay: Antithrombotic activity in photochemically induced arterial thrombosis Cynomolgus monkey blood assessed as decrease in occlusion time (reference value: 119 +/- 17.40 min); assay type: functional, Macaca fascicularis
Blood [18] = assay: Antithrombotic activity in ferric chloride-treated carotid artery thrombosis Sprague-dawley rat blood assessed as clot weight at 50 mg/kg (RVB = 72.50 +/- 2 mg); assay type: functional
[19] = Antithrombotic activity in fresh platelet rich plasma; assay type: functional, cell-based
Plasma [20] = assay: Antithrombotic activity in mouse plasma assessed as clotting time administered IV
Plasma [21] = assay: Antithrombotic activity in mouse plasma assessed as prothrombin time administered IV
Prothrombin = Prothrombin (Homo sapiens, UniProt P00734); assay: Inhibition of thrombin in human plasma; assay type: cell-free
Plasma [22] = assay: Antithrombotic activity in human plasma assessed as thrombin time; assay type: functional
Erythrocyte = assay: Anticoagulant activity in human RBC assessed as decrease in epinephrine induced platelet aggregation by measuring increased clotting time relative to control; assay type: functional
Rattus norvegicus [23] = species on record: Rattus norvegicus; assay: Antithrombotic activity in arteriovenous bypass thrombo-genesis rat model assessed as quality of thrombosis; assay type: functional
[24] = Anticoagulant activity in human platelet assessed as reduction in thrombin-induced platelet aggregation in presence of ADP by measuring turbidity; assay type: functional, cell-based
Plasma [25] = assay: Antiplatelet aggregation activity in rabbit plasma incubated for 5 mins; assay type: functional, cell-free; details: Oryctolagus cuniculus
Platelet [26] = assay: Potency index ratio of IC50 for CCI-17810 to IC50 test compound against antiplatelet activity in platelet (unknown origin); assay type: functional

IC50 (Plasma [2]): 18 µg/mL (≈ 63.8 µM)
Compound: Cc1ccc2c(c1)NC(CC(=O)c1ccccc1)C(=O)O2 (stereo not given)

IC50 (Coagulation factor X [4]): 0.0028 µM
Compound: CC(=N)N1CCC(Oc2ccc3c(c2)C(=O)NS(=O)(=O)N3C/C=C/c2cccc(C(=N)N)c2)CC1

Ki (Coagulation factor X [5]): 1 µM
Compound: COc1ccc(C(=O)Nc2ccccc2NC(=O)c2ccc(OC)cc2)cc1

IC50 [9]: 0.03 µM
Compound: CCCN(CCC)CC(=O)Nc1ccc(C2=NNC(=O)CC2)cc1
Ratio IC50 (Platelet [10]): 10

IC50 (Plasma [11]): 22.2 µM
IC50 (Plasma [12]): 41.7 µM
Compound: O=C(O)C(Cc1ccc2c(c1)OCC(COCC1CCNCC1)O2)NS(=O)(=O)c1ccccc1 (stereo not given)

IC50 [9]: 0.36 µM
Compound: O=C1CCC(c2ccc(Nc3ccncc3)cc2)=NN1 [SENAZODAN]

IC50 (Plasma [14]): 0.32 µM
Compound: CCOC(=O)CCN(C(=O)c1ccc2c(c1)nc1n2CCN(CC(=O)OCC)C1Cc1ccc(/C(N)=N/CC(=O)OCC)cc1)c1ccccc1 (stereo not given)

IC50 (P2Y purinoceptor 1): 1.6 µM
Compound: CNc1ncnc2c1ncn2CCC(COP(=O)(O)O)COP(=O)(O)O

IC50 (P2Y purinoceptor 1): 0.48 µM
Compound: CNc1nc(Cl)nc2c1ncn2CC(COP(=O)(O)O)COP(=O)(O)O

IC50 [15]: 2850 µM
Compound: O=C(O)/C=C/c1ccc(Cn2ccnc2)cc1 [OZAGREL]

IC50 [9]: 0.05 µM
Compound: CC1CC(=O)NN=C1c1ccc(NC(=O)CN2CCCCC2)cc1 (stereo not given)

IC50 [19]: 0.2 µM
Compound: O=C(CC1CCCCCCCCCNC(=O)OCOC(=O)C(Cc2ccccc2)NC1=O)OCc1ccccc1 (stereo not given)

IC50 [9]: 0.085 µM
Compound: CCCN(CCC)CC(=O)Nc1ccc(C2=NNC(=O)CC2C)cc1 (stereo not given)

IC50 (Coagulation factor X [4]): 0.0025 µM
Compound: CC(=N)N1CCC(Oc2ccc3c(c2)C(=O)NS(=O)(=O)N3CC(=O)Nc2cccc(C(=N)N)c2)CC1

IC50 (Coagulation factor X [4]): 0.0021 µM
Compound: CC(=N)N1CCC(Oc2ccc3c(c2)C(=O)NS(=O)(=O)N3Cc2ccc3ccc(C(=N)N)cc3c2)CC1

IC50 (Plasma [14]): 0.6 µM
Compound: Cn1c(CNc2ccc(C(=N)N)cc2)nc2cc(C(=O)N(CCC(=O)O)c3ccccn3)ccc21 [DABIGATRAN]

IC50 (P2Y purinoceptor 1): 0.84 µM
Compound: CNc1nc(Cl)nc2c1ncn2CCC(COP(=O)(O)O)COP(=O)(O)O

IC50 (Prothrombin): 114 µM
Compound: CC1(C)[C@@H](OC(=O)c2ccccc2C(=O)O)CC[C@]2(C)[C@H]3C(=O)C=C4[C@@H]5C[C@@](C)(C(=O)O)CC[C@]5(C)CC[C@@]4(C)[C@]3(C)CC[C@@H]12
Time (Plasma [22]): 118.3 s

IC50 [15]: 19600 µM
Compound: COc1cc(/C=C/C(=O)O)ccc1O [FERULATE]

IC50 (P2Y purinoceptor 1): 1.09 µM
Compound: CNc1ncnc2c1ncn2CC(COP(=O)(O)O)COP(=O)(O)O

IC50 [15]: 2.5 µM
Compound: CCCCCCCCN1CCN(c2ccc(C3=NNC(=O)CC3)cc2)CC1

IC50 [24]: 66 µM
Compound: O=C1CNC(=O)C(Cc2c[nH]cn2)N1 (stereo not given)

IC50 (Coagulation factor X [4]): 0.006 µM
Compound: CC(=N)N1CCC(Oc2ccc(N(Cc3ccc4ccc(C(=N)N)cc4c3)S(=O)(=O)CC(=O)O)cc2)CC1 [YM-60828]

IC50 [15]: 1760 µM
Compound: COc1cc(/C=C/C(=O)O)ccc1OCc1cccnc1

IC50 (Plasma [14]): 0.57 µM
Compound: CCCCCOC(=O)C/N=C(\N)c1ccc(CC2c3nc4cc(C(=O)N(CCC(=O)OCC)c5ccccc5)ccc4n3CCN2CC(=O)OCCCCC)cc1 (stereo not given)

IC50 [19]: 0.4 µM
Compound: O=C(O)CC1CCCCCCCCCNC(=O)OCOC(=O)C(Cc2ccccc2)NC1=O (stereo not given)

IC50 [9]: 0.06 µM
Compound: CC1CC(=O)NN=C1c1ccc(NC(=O)Cn2ccnc2)cc1 (stereo not given)

IC50 (Plasma [14]): 0.11 µM
Compound: CCOC(=O)CCN(C(=O)c1ccc2c(c1)nc1n2CCN(CC(=O)OC(C)(C)C)C1Cc1ccc(/C(N)=N/CC(=O)OC(C)(C)C)cc1)c1ccccc1 (stereo not given)

IC50 (Plasma [2]): 17 µg/mL (≈ 39.8 µM)
Compound: O=C(CC1Nc2c(ccc(Cl)c2[N+](=O)[O-])OC1=O)c1ccc(Br)cc1 (stereo not given)

IC50 (Plasma [25]): 8.99 µM
Compound: CCN1C(=O)COc2cc(NC(=O)c3ccccc3)ccc21

IC50 (Plasma [25]): 8.94 µM
Compound: CCN1C(=O)COc2cc(NC(=O)CCCl)ccc21

IC50 [1]: 0.008 µM
Compound: CCCN(CCC)CC(=O)N1CCN(c2ccc(C3=NNC(=O)CC3C)cc2)CC1 (stereo not given)
Ratio IC50 (Platelet [26]): 60

Second part, the compound before the results:

Compound: CC(=O)Oc1ccccc1C(=O)Nc1n[n+](-c2ccc(C)cc2)no1
inhibition (INH) [1]: 30.7%

Compound: CC(=O)Oc1ccccc1C(=O)Oc1ccc(/C=C/C(=O)OCCCCO[N+](=O)[O-])cc1
inhibition (INH) (Rattus norvegicus [3]): 43.9%

Compound: COc1ccc(-c2oc3cc(O)cc(O)c3c(=O)c2O)cc1OC
Time (Plasma [6]): 9.9 s
Time (Plasma [7]): 5.8 s
Time (Plasma [8]): 58.7 s

Compound: N#Cc1ccc(S[C@H]2C[C@@H](O)[C@H](O)CS2)cc1
ED50 (Plasma [13]): 7 mg/kg

Compound: O=C(OCCOc1ccc2ccc(=O)oc2c1)c1ccccc1OCCOc1ccc2ccc(=O)oc2c1
Time (Plasma (Mus musculus)): 10.88 s

Compound: N#Cc1ccc(SC2SC[C@H](O)[C@@H](O)[C@H]2O)cc1 (stereo not given in full)
ED50 (Plasma [13]): 15 mg/kg

Compound: COc1cc(/C=C/C(=O)OCCCCCCCCCOc2no[n+]([O-])c2S(=O)(=O)c2ccccc2)ccc1OC(=O)c1ccccc1OC(C)=O
inhibition (INH) (Rattus norvegicus [3]): 15.7%

Compound: CC(C)[C@](O)(C(=O)OCC1=CCN2CC[C@@H](O)[C@@H]12)[C@H](C)O
IC50 [1]: 0.49 µM
IC50 [15]: 12.5 µM

Compound: COc1cc(O)c2c(=O)c(O)c(-c3ccc(O)c(O)c3)oc2c1 [RHAMNETIN]
Time (Plasma [6]): 23 s
Time (Plasma [7]): 6.8 s
Time (Plasma [8]): 72.6 s

Compound: COc1cc(/C=C/C(=O)O)ccc1OCCN(C)C
inhibition (INH) [1]: 83.1%

Compound: O=C(COCC(=O)N1CCN(C(c2ccccc2)c2ccccc2)CC1)Nc1ccc(Cl)cc1C(=O)[O-].[Na+]
Activity (Blood [16]): 60.9 mg
Time (Blood [17]): 53.9 min
Activity (Blood [18]): 56.8 mg

Compound: COc1cc(O)cc2oc(-c3ccc(O)c(O)c3)c(O)c(=O)c12
Time (Plasma [6]): 19.4 s
Time (Plasma [7]): 7.6 s
Time (Plasma [8]): 49.2 s

Compound: CC(=O)Nc1ccc(C(=O)Nc2cc(C(N)=O)ccc2NC(=O)c2ccc(-n3ccccc3=O)cc2)cc1Cl
Time (Plasma [8]): 10.2 s

Compound: COc1cc(OC)c2c(=O)c(O)c(-c3ccc(O)c(O)c3)oc2c1
Time (Plasma [6]): 21.8 s
Time (Plasma [7]): 6.9 s
Time (Plasma [8]): 67.6 s

Compound: CC(=O)CC(c1ccccc1)c1c(O)c2ccccc2oc1=O (stereo not given) [WARFARIN]
Time (Plasma (Mus musculus)): 7.97 s
Time (Plasma [20]): 23.2 s
Time (Plasma [21]): 42.3 s

Compound: N#Cc1ccc(S[C@@H]2SC[C@@H](O)[C@H](O)[C@H]2O)cc1 [BECIPARCIL]
ED50 (Plasma [13]): 25 mg/kg

Compound: COc1ccc(-n2nc(C(N)=O)c3c2C(=O)N(c2ccc(N4CCCCC4=O)cc2)CC3)cc1 [APIXABAN]
Time (Plasma [8]): 10 s

Compound: COc1cc(/C=C/C(=O)OCc2c(-c3ccccc3)no[n+]2[O-])ccc1OC(=O)c1ccccc1OC(C)=O
inhibition (INH) (Rattus norvegicus [3]): 12.1%

Compound: Cn1c(-c2ccc(Br)s2)nc2cc(-c3nnc(-c4cc(-c5cc(F)cc(F)c5)nc5ccccc45)o3)ccc21
inhibition (INH) (Erythrocyte): 93.4%

Compound: COc1cc(/C=C/C(=O)OC2COC3C(O[N+](=O)[O-])COC23)ccc1OC(=O)c1ccccc1OC(C)=O (stereo not given)
inhibition (INH) (Rattus norvegicus [3]): 28.7%

Compound: CC(=O)Oc1ccccc1C(=O)O [ASPIRIN]
inhibition (INH) (Rattus norvegicus [3]): 14.7%
Activity (Rattus norvegicus [23]): 10.5 mg

Compound: O=C(Nc1ccc2oc(=O)ccc2c1)c1ccc(-c2noc(CCl)n2)cc1
Time (Plasma [20]): 17.7 s
Time (Plasma [21]): 42.3 s

Compound: COc1cc(/C=C/C(=O)O)ccc1OCCN1CCOCC1
inhibition (INH) [1]: 91.4%

Compound: CCOC(=O)CCN(C(=O)c1ccc2c(c1)nc1n2CCN(CC(=O)OCc2ccccc2)C1Cc1ccc(/C(N)=N/CC(=O)OCc2ccccc2)cc1)c1ccccc1 (stereo not given)
IC50 (Plasma [14]): 0.47 µM

Compound: COc1cc(C(=O)Nc2cc(C(N)=O)ccc2NC(=O)c2ccc(-n3ccccc3=O)cc2)ccc1O
Time (Plasma [8]): 8.8 s

Compound: CN(C)C(=O)c1ccc(NC(=O)c2ccc(-n3ccccc3=O)cc2)c(NC(=O)c2ccc(Cl)c(Cl)c2)c1
Time (Plasma [8]): 9.5 s

Compound: COC(=O)c1ccccc1OCCOc1ccc2c(C)cc(=O)oc2c1
Time (Plasma (Mus musculus)): 8.44 s

Compound: Cc1cc(=O)oc2cc(OCCOc3ccccc3C(=O)OCCOc3ccc4ccc(=O)oc4c3)ccc12
Time (Plasma (Mus musculus)): 13.1 s

Compound: COc1cc(/C=C/C(=O)OCCOCCO[N+](=O)[O-])ccc1OC(=O)c1ccccc1OC(C)=O
inhibition (INH) (Rattus norvegicus [3]): 16%
